Experimental data as given in patent publication US8895079B2, “Combinations of botanical extracts for promoting cardiovascular health” (National Research Council of Canada, priority 2005, dated 2014).
Marks after values point to notes of the source that are not given here.

Tests used:
liver CYP27A1 mRNA = assay: Example 1: liver CYP27A1 mRNA expression, real-time PCR; type: in vivo, Male Golden Syrian hamsters; settings: relative expression in reference to a housekeeping gene, Example 1, 4 weeks
Method: (§1) Experiments were also conducted to determine the effect on the expression of genes associated with cholesterol in the liver and intestine. Total RNA was extracted and mRNA was converted to cDNA. The mRNA expression was measured by real-time PCR with four repeats and calculated as relative expression in reference to internal control of a housekeeping gene for each sample. Table 5, FIG. 8b and FIG. 8c summarize the effect of BBRCI and PS on the mRNA expression of CYP7A1 and CYP27A1 in the liver. BBRCI and PS alone tended to increase mRNA expression of both genes. CYP7A1 and CYP27A1 are two rate-limiting enzymes controlling bile acid synthesis, which is one mechanism through which the body removes cholesterol by converting it into bile acids. When BBRCI and PS were combined, a synergistic action appeared to happen.

[1] = system: hamsters fed a diet containing 0.25% cholesterol; assay: Example 3: five week hamster study, blood lipid levels, 0.25% cholesterol diet, 0.5% PS; type: in vivo, male Golden Syrian hamsters; settings: BBRCI 100 mg/kg·d and/or PS 0.5% (w/w)
Method: In this example, a controlled, five week animal study was performed. Four randomized groups of 12 or 6 male Golden Syrian hamsters were fed isocaloric diets as follows. The dosage of PS was reduced from 1% to 0.5% (w/w) in the diet. Hamster husbandry, living and feeding conditions were similar to that in Example 1. • Control a semi-synthetic casein-corn starch-sucrose diet that contained 0.25% (w/w) cholesterol • BBRCI control diet containing 100 mg/kg·d of BBRCI • PS control diet containing 0.5% (w/w) PS • BBRCI+PS control diet containing 100 mg/kg·d BBRCI and 0.5% (w/w) PS One objective of this example was to determine the effects of each intervention on circulating blood lipids including total cholesterol (T-C), high-density-lipoprotein cholesterol (HDL-C), nonHDL-C (which is indicative of LDL-C levels) and triglyceride (TG) profiles. Table 8 summarizes the effect on blood lipid levels (values are means±SD, n=12). Data were analyzed by one-way ANOVA followed by Tukey test if significance was detected. A significant difference was indicated by a p<0.05. […] When BBRCI and PS were given to hamsters simultaneously, significant synergistic actions were observed on […] and TG levels. A synergistic action of BBRCI and PS was also observed on the ratio of HDL-C and nonHDL-C.

[2] = system: hamsters fed a diet containing 0.25% cholesterol; assay: Example 2: tissue weight to body weight ratio; type: in vivo, male Golden Syrian hamsters; settings: Example 2, 5 weeks; BBRCI 100 mg/kg·d and/or PS 1% (w/w); means±SD, n=12
Method: In this example, a controlled, five week animal study was performed. A total of 48 male Golden Syrian hamsters were randomized into 4 groups of 12 and fed isocaloric diets as follows. Hamster husbandry, living and feeding conditions were similar to that used for Example 1. • Control a semi-synthetic casein-corn starch-sucrose diet that contained 0.25% (w/w) cholesterol • BBRCI control diet containing 100 mg/kg·d of BBRCI • PS control diet containing 1% (w/w) PS • BBRCI+PS control diet containing 100 mg/kg·d BBRCI and 1% (w/w) PS Table 7 summarizes the effect on tissue weight to body weight ratio (values are means±SD). Data were analyzed by one-way ANOVA followed by Tukey test when a significant treatment effect was detected. A significant difference was indicated by a p<0.05. […] The combination of BBRCI and PS (BBRCI+PS), however, reduced the average liver weight in a strong, statistically significant, and synergistic manner compared to liver weights in the BBRCI and PS groups.

intestinal ABCG5 mRNA = assay: Example 1: intestinal ABCG5 mRNA expression, real-time PCR; type: in vivo, Male Golden Syrian hamsters; settings: intestine; relative expression in reference to a housekeeping gene; Example 1, 4 weeks
Method: (§2) Experiments were also conducted to determine the effect on the expression of genes associated with cholesterol in the liver and intestine. Total RNA was extracted and mRNA was converted to cDNA. The mRNA expression was measured by real-time PCR with four repeats and calculated as relative expression in reference to internal control of a housekeeping gene for each sample. […] The function of ABCG5 and ABCG8 in the intestine is to transport cholesterol out of enterocytes and back to the intestine for elimination via the feces. […] The observation of our study (Example 1) has provided a strong support to the synergistic action of BBRCI and PS on cholesterol reduction.

[3] = system: hamsters fed an atherogenic control diet; assay: Example 1: liver cholesterol concentration (FIG. 4); type: in vivo, Male Golden Syrian hamsters; settings: Example 1, 4 weeks, BBRCI 100 mg/kg·d and/or PS 1% (w/w)
Source text: This observation, together with lower liver weight, implies that either BBRCI or PS or combination of either can be used to treat fatty liver.

[4] = system: rats fed a diet containing 2% cholesterol and 28% fat; assay: Example 4: six week rat study, blood total cholesterol levels; type: in vivo, male Sprague-Dawley rats; settings: 6 weeks; for T-C: 2% cholesterol 28% fat diet, means±SD, n=10
Method: In this example, a controlled, six week animal study was performed in a different animal model. Six randomized groups of 10 male Sprague-Dawley rats were fed isocaloric diets as follows. […] One objective of this example was to determine the effects of each intervention on plasma cholesterol levels in a different animal model. Table 9 summarizes the effect on blood total cholesterol levels (values are means±SD, n=10).

intestinal ABCG8 mRNA = assay: Example 1: intestinal ABCG8 mRNA expression, real-time PCR; type: in vivo, Male Golden Syrian hamsters; settings: intestine; relative expression in reference to a housekeeping gene; Example 1, 4 weeks
Method: as §2

liver CYP7A1 mRNA = assay: Example 1: liver CYP7A1 mRNA expression, real-time PCR; type: in vivo, Male Golden Syrian hamsters; settings: relative expression in reference to a housekeeping gene, Example 1, 4 weeks
Method: as §1

[5] = 0.25% cholesterol diet, 5 weeks, means±SD

COc1ccc2cc3[n+](cc2c1OC)CCc1cc2c(cc1-3)OCO2 [BBRCI, Berberine chloride] was tested, and the “CYP27A1 mRNA expression” value (liver CYP27A1 mRNA) was 1.27 ± 0.31, the “nonHDL-C Concentration” value ([1]; 0.25% cholesterol diet, 5 weeks) was 173.5 ± 66.5^ab mg/dl and the “HDL-C Concentration” value [1, 5] was 93.1 ± 27.1 mg/dL. The “T-C Concentration” value [1, 5] was 264.7 ± 49.8^a mg/dl, the “TG Concentration” value [1, 5] was 549.1 ± 225.3^a mg/dl and the “HDL-C % difference from Control” value ([1]; Example 3, 5 weeks) was 1.7%. The “HDL-C/nonHDL-C % difference from Control” value ([1]; Example 3, 5 weeks) was 29%, the “T-C % difference from Control” value ([1]; Example 3, 5 weeks) was −7.8% and the “TG % difference from Control” value ([1]; Example 3, 5 weeks) was −0.2%. For the same compound, the “nonHDL-C % difference from Control” value ([1]; Example 3, 5 weeks) was −11.1%, the HDL-C/nonHDL-C ([1]; ratio, 0.25% cholesterol diet, 5 weeks) was 0.66 ± 0.41^b and the “Heart, tissue weight to body weight ratio” value [2] was 0.37 ± 0.03. For the same compound, the “Liver, tissue weight to body weight ratio” value [2] was 4.67 ± 0.38^ab, the “Right kidney, tissue weight to body weight ratio” value [2] was 0.35 ± 0.03 and the “ABCG5 mRNA expression” value (intestinal ABCG5 mRNA) was 2.37 ± 0.70^a. For the same compound, the “cholesterol concentration in the liver” value [3] was “dramatically reduced cholesterol concentration in the liver”, the T-C ([4]; BBRCI 100 mg/kg·d by gavage (BBRCl-1) and/or PS 1% (w/w) in diet) was 102.1 ± 30.6 mg/dL and the T-C ([4]; BBRCI 200 mg/kg·d by gavage (BBRCl-2), alone or with PS 1% (w/w)) was 109.1 ± 26.7 mg/dL. The “T-C % difference from Control” value ([4]; BBRCI 100 mg/kg·d (BBRCl-1) and/or PS 1% (w/w)) was −6.7%, the “T-C % difference from Control” value ([4]; BBRCI 200 mg/kg·d (BBRCl-2), alone or with PS 1% (w/w)) was −0.3% and the “ABCG8 mRNA expression” value (intestinal ABCG8 mRNA) was 1.33 ± 0.45^a. The “CYP7A1 mRNA expression” value (liver CYP7A1 mRNA) was 1.30 ± 0.66.
